In patent US11072605B2, “Crystalline brexpiprazole” (Hexal Aktiengesellschaft, priority 2017, dated 2021):

Assay: Particle size distribution by laser diffraction (Malvern Mastersizer 3000)
Format: physicochemical
Settings: aqueous suspension, after ultrasonification
Experimental: For the purpose of this invention, particle size distribution (PSD) is determined as the percent volume at each particle size and measured by a laser diffraction method in the context of a circulating aqueous suspension.
A Malvern Mastersizer 3000 laser diffraction analyzer equipped with a Hydro EV measurement cell was used. About 50 mg of sample were filled into a 15 ml glass test tube. The sample was wetted with two drops of Tween 80 and vortexed. Then the thoroughly wetted sample was dispersed in about 7 mL of UHQ-water by vortexing until the particles were dispersed. The suspension was treated for 7 minutes in an ultrasonification bath at RT (Elma S50H). The well dispersed suspension was then measured in water by adding a sample from the center of the test tube containing the well dispersed suspension to a water-filled dispersion unit prefilled with 70 mL of water. The sample in the 70 mL dispersion unit was kept under stirring at 2000 rpm. More sample from the test tube was added, until a targeted obscuration range of 10-25 percent was achieved. The Malvern Mastersizer was operated using the following parameters:
Particle size distribution was measured with a Malvern Mastersizer 3000 laser diffraction analyzer equipped with a Hydro EV measurement cell. About 50 mg of sample were given into a test tube. The sample was wetted with two drops of Tween 80 and dispersed in about 7 ml of water on a Vortexer. The suspension was treated for 7 minutes in a ultrasonification bath (Elma S50H). The well dispersed suspension was afterwards measured in water at a targeted obscuration range of 10-25 percent while circulating the aqueous suspension and stirring the suspension reservoir at 2000 rpm after a waiting period of three minutes. A fraunhofer optical model was utilized to deconvolute the sample scattering patterns to yield the resultant particle size distributions. Analysis model: General purpose/normal sensitivity. Measuring/background time: about 10 sec

Row | d(4,3) volume mean diameter | d(10) (volume distribution) | d(90) (volume distribution) | Structure (SMILES) | d(50) (volume distribution)
1 | D(4.3): 19 μm | D(10): 1.5 μm | D(90): 42 μm | O=c1ccc2ccc(OCCCCN3CCN(c4cccc5sccc45)CC3)cc2[nH]1 [(i)] | 
2 | D(4.3): 30 μm | D(10): 1.3 μm | D(90); 79 μm | O=c1ccc2ccc(OCCCCN3CCN(c4cccc5sccc45)CC3)cc2[nH]1 [(ii)] | 

Row | Structure (SMILES) | d(4,3) volume mean diameter | d(10) (volume distribution) | d(90) (volume distribution) | d(50) (volume distribution)
3 | O=c1ccc2ccc(OCCCCN3CCN(c4cccc5sccc45)CC3)cc2[nH]1 [Compound I, 7-[4-[4-(1-Benzothiophen-4-yl)piperazin-1-yl]butoxy]quinolin-2(1H)-one, reference compound] |  | 0.8 μm | 10.8 μm | 3 μm
